A short description of test [1]: Inhibition of HIV1 integrase strand transfer activity. Also on record: species or system Human immunodeficiency virus 1.
Test [2] has as its system Human immunodeficiency virus 1. The test is described as follows: Antiviral activity against HIV1 infected MT4 cells in presence of 10% FBS. The format is functional. The following applies: Human immunodeficiency virus 1, MT4.
Test [3] deals with Human immunodeficiency virus 1. The test is described as follows: Antiviral activity against HIV1 infected MT4 cells in presence of 50% NHS. The format is functional, organism-based. The settings on record: Human immunodeficiency virus 1, MT4.

`CN1CCn2cc(C(=O)NCc3ccc(F)cc3)c(O)c2C1=O` registered an IC50 in test [1] of 400 nM.

`CNC(=O)c1nn2c(c1O)C(=O)N(Cc1ccc(F)cc1)CC2`: the figures for the 50% inhibitory concentration (IC50) in test [1] and in test [3] were 40 nM and greater than 10000 nM, respectively. Besides, the IC95 in test [2] is 5000 nM.

`CC(C)C1CN(C)C(=O)c2c(O)c(C(=O)NCc3ccc(F)cc3)nn21` (stereo not given) gave an IC50 in test [1] of 20 nM. For the same molecule, the IC95 in test [2] amounted to 63 nM; in test [3], 250 nM.

`CN1CCCn2nc(C(=O)NCc3ccc(F)cc3)c(O)c2C1=O` came in with an IC50 in test [1] of 470 nM.

Consider `CN1CC(c2ccccc2)n2nc(C(=O)NCc3ccc(F)cc3)c(O)c2C1=O` (stereo not given), for which the IC50 in test [1] is no more than 10 nM. Moreover, the IC95 in test [2] stood at 50 nM; in test [3], 310 nM.

`CNC(=O)c1cccc(C2CN(C)C(=O)c3c(O)c(C(=O)NCc4ccc(F)cc4)nn32)c1` (stereo not given) showed a 50% inhibitory concentration (IC50) in test [1] of no more than 10 nM. The IC95 in test [2] and in test [3] was 1000 nM in each case.

In turn, `CN1CCn2nc(C(=O)NCc3ccc(F)cc3)c(O)c2C1=O` came in with an IC50 in test [1] of no more than 10 nM. Besides, the IC95 is 630 nM in test [2] and 2500 nM in test [3].

In test [1], `CN1CC(c2csc(N)n2)n2nc(C(=O)NCc3ccc(F)cc3)c(O)c2C1=O` (stereo not given) yielded an IC50 of no more than 10 nM. Moreover, the 95% effect concentration (IC95) in test [2] came out at 500 nM; in test [3], 1000 nM.

Turning to `CNC(=O)c1nn2c(c1O)C(=O)N(Cc1ccc(F)cc1)CC2c1ccccc1` (stereo not given), the midpoint of inhibition in test [1], the IC50, lay at 130 nM. Moreover, the IC95 in test [2] was 10000 nM; in test [3] it was greater than 10000 nM.

In turn, `CNC(=O)c1cc(F)ccc1CNC(=O)c1nn2c(c1O)C(=O)N(C)C[C@H]2c1ccccc1` gave an IC50 in test [1] of 62 nM. The IC95 in test [2] and in test [3] was 250 nM throughout.

In test [1], `CN1CC(c2cccnc2)n2nc(C(=O)NCc3ccc(F)cc3)c(O)c2C1=O` (stereo not given) showed an IC50 of no more than 10 nM. Further, the concentration for an effect of 95% (IC95) is 250 nM in test [2] and 500 nM in test [3].

In turn, `CN1C(=O)c2c(O)c(C(=O)NCc3ccc(F)cc3)nn2CC1c1ccccc1` (stereo not given) registered an IC50 in test [1] of 110 nM.

For the molecule `CNC(=O)c1cc(F)ccc1CNC(=O)c1nn2c(c1O)C(=O)N(C)C[C@@H]2c1ccccc1`, half-maximal inhibition in test [1] (IC50) was put at 74 nM. The IC95 in test [2] and in test [3] was 63 nM each time.

In the case of `CC1Cn2nc(C(=O)NCc3ccc(F)cc3)c(O)c2C(=O)N1C` (stereo not given), the IC50 in test [1] was determined as 40 nM.

Consider `CC1CN(C)C(=O)c2c(O)c(C(=O)NCc3ccc(F)cc3)nn21` (stereo not given), for which, in test [1], the IC50 was 13 nM.

In general, IC50 refers to the concentration needed to halve the response being measured. In general, IC95 refers to the concentration needed for an effect of 95%.

The values are drawn from ChEMBL document CHEMBL1142310, “Design and synthesis of substituted 4-oxo-4,5,6,7-tetrahydropyrazolo[1,5-a]pyrazine-2-carboxamides, novel HIV-1 integrase inhibitors” (Bioorg Med Chem Lett, 2008).
